From patent US10227331B2 (priority 2015, dated 2019)

Tests used:
[1] = system: P. aeruginosa expressing IMP-1, efflux+ (MB9798); format: cell-based, Pseudomonas aeruginosa; conditions: for P. aeruginosa expressing IMP-1, efflux+ (MB9798) MITC95: imipenem at 2 μg/mL, in the presence of a class A, C, D serine β-lactamase inhibitor closely related to relebactam; for Efflux ratio: ratio MITC95 PA_9798/MITC95 PA_9799
Excerpt: (§1) The strain background is Pseudomonas aeruginosa PAO1.

[2] = system: P. aeruginosa expressing IMP-1, efflux− (MB9799); assay: Efflux: concentration of MBL inhibitor which restores susceptibility to imipenem; format: cell-based, Pseudomonas aeruginosa; conditions: imipenem at 2 μg/mL, in the presence of a class A, C, D serine β-lactamase inhibitor closely related to relebactam
Excerpt: as §1

[3] = target: VIM-1 (Pseudomonas aeruginosa (strain ATCC 15692 / DSM 22644 / CIP 104116 / JCM 14847 / LMG 12228 / 1C / PRS 101 / PAO1), UniProt A0A0F7KYQ8); assay: biochemical; conditions: CCF2-FA substrate, 2 hours at 25° C
Method in brief: (§2)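 Fluorescence assay, CCF2-FA substrate (cephalosporin core linking 7-hydroxycoumarin to fluorescein); inhibitor + MBL + substrate, 2 h, 25° C. IC50 by 4-parameter fit, semi-log plot.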

[4] = system: Escherichia coli expressing NDM-1 (CLB30005, CLB30016); format: cell-based; conditions: NDM-1 (CLB30016), with imipenem 1 μg/ml, 95% inhibition of bacterial growth
Method in brief: (§3)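 Colonies from overnight 35 °C blood-agar cultures were suspended in saline, diluted 1:100 into 1.1× CAMHB and exposed to test compound with or without imipenem at 1 μg/ml. After 22–24 h at 35 °C, absorbance was read to find the concentration restoring imipenem susceptibility.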

[5] = system: Serratia marcescens expressing IMP-1 (CL5741); format: cell-based; conditions: IMP-1 (CL5741), with imipenem 1 μg/ml, 95% inhibition of bacterial growth
Method in brief: as §3

[6] = system: Klebsiella pneumoniae expressing VIM-1 (IHMA599644); format: cell-based; conditions: VIM-1 (IHMA599644), with imipenem 1 μg/ml, 95% inhibition of bacterial growth
Method in brief: as §3

[7] = target: IMP-1 (Serratia marcescens, UniProt P52699); assay: biochemical; format: biochemical; conditions: CCF2-FA substrate, 2 hours at 25° C; read-out: IMP-1 IC50
Chain of IMP-1 (P52699 whole entry, looked up, species assumed): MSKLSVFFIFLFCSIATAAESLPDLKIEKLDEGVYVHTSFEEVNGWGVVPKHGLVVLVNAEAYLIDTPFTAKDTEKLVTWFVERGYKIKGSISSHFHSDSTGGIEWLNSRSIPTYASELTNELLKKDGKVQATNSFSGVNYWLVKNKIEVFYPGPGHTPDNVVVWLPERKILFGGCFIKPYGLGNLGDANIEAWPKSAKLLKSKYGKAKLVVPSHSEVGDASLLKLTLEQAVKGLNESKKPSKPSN
Method in brief: as §2

[8] = target: NDM-1 (Klebsiella pneumoniae, UniProt C7C422); assay: biochemical; format: biochemical; conditions: CCF2-FA substrate, 2 hours at 25° C; read-out: NDM-1 IC50
Chain of NDM-1 (C7C422 whole entry, looked up, species assumed): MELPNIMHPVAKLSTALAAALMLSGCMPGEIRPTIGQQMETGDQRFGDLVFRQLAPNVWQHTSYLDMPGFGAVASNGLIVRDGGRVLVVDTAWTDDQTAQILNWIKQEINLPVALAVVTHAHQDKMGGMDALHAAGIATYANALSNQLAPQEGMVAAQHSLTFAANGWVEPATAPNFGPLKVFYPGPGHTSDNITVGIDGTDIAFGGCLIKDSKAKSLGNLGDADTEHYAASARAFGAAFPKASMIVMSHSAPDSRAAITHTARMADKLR
Method in brief: as §2

SMILES	P. aeruginosa expressing IMP-1, efflux+ (MB9798) MITC95 [1]	Efflux ratio [1]	P. aeruginosa expressing IMP-1, efflux− (MB9799) MITC95 [2]	IC50 [3]	Escherichia coli MITC95 [4]	Serratia marcescens MITC95 [5]	Klebsiella pneumoniae MITC95 [6]	IC50 [7]	IC50 [8]
NCCS(=O)(=O)c1ccc(-c2cccc3[nH]c(=O)[nH]c23)c(-c2nnn[nH]2)c1S(N)(=O)=O [Example 300, 6-((2-aminoethyl)sulfonyl)-3-(2-oxo-2,3-dihydro-1H-benzo[d]imidazol-4-yl)-2-(1H-tetrazol-5-yl) benzenesulfonamide]	1.563 µM	2.00	0.7813 µM	0.162 nM	0.7813 µM	1.563 µM	3.125 µM	0.415 nM	0.254 nM
NS(=O)(=O)c1c(S(=O)(=O)C2CNC2)ccc(-c2cncc3[nH]c(=O)[nH]c23)c1-c1nnn[nH]1 [Example 301, 6-(azetidin-3-ylsulfonyl)-3-(2-oxo-2,3-dihydro-1H-imidazo[4,5-c]pyridin-7-yl)-2-(1H-tetrazol-5-yl)benzenesulfonamide]	3.125 µM	2.00	1.563 µM	0.96 nM	0.7813 µM	3.125 µM	6.25 µM	2.87 nM	0.536 nM
NCCS(=O)(=O)c1ccc(-c2cccc3nc(C(=O)O)nn23)c(-c2nnn[nH]2)c1S(N)(=O)=O [Example 304, 5-(4-((2-aminoethyl)sulfonyl)-3-sulfamoyl-2-(1H-tetrazol-5-yl)phenyl)-[1,2,4]triazolo [1,5-a]pyridine-2-carb oxylic Acid]	25 µM	2.00	12.5 µM	0.478 nM	6.25 µM	6.25 µM	50 µM	5.36 nM	0.214 nM
NCCS(=O)(=O)c1ccc(-c2cccc3[nH]c(CN)nc23)c(-c2nn[nH]n2)c1S(N)(=O)=O [Example 305, 6-((2-aminoethyl)sulfonyl)-3-(2-(aminomethyl)-1H-benzo[d]imidazol-4-yl)-2-(2H-tetrazol-5-yl)benzenesulfonamide]	1.563 µM	2.00	0.7813 µM	0.493 nM	1.563 µM	0.7813 µM	1.563 µM	1.91 nM	0.643 nM
NCCc1nc2c(-c3ccc(S(=O)(=O)CCN)c(S(N)(=O)=O)c3-c3nn[nH]n3)cccc2[nH]1 [Example 306, 3-(2-(2-aminoethyl)-1H-benzo[d]imidazol-4-yl)-6-((2-aminoethyl)sulfonyl)-2-(2H-tetrazol-5-yl) benzenesulfonamide]	1.563 µM	2.00	0.7813 µM	0.374 nM	0.7813 µM	0.7813 µM	1.563 µM	2.84 nM	0.848 nM
NCCS(=O)(=O)c1ccc(-c2cccc3[nH]c(C(F)(F)CN)nc23)c(-c2nn[nH]n2)c1S(N)(=O)=O [Example 307, 3-(2-(2-amino-1,1-difluoroethyl)-1H-benzo[d]imidazol-4-yl)-6-((2-aminoethyl)sulfonyl)-2-(2H-tetrazol-5-yl) benzenesulfonamide]	0.3906 µM	1.00	0.3906 µM	0.0306 nM	0.7813 µM	0.7813 µM	0.7813 µM	0.0868 nM	0.0372 nM
NCCS(=O)(=O)c1ccc(-c2cccc3[nH]c(C(F)(F)F)nc23)c(-c2nn[nH]n2)c1S(N)(=O)=O [Example 308, 6-((2-aminoethyl)sulfonyl)-2-(2H-tetrazol-5-yl)-3-(2-(trifluoromethyl)-1H-benzo[d]imidazol-4-yl)benzenesulfonamide]	6.25 µM	4.00	1.563 µM	0.219 nM	3.125 µM	3.125 µM	3.125 µM	0.56 nM	0.17 nM
NS(=O)(=O)c1c(S(=O)(=O)C2CNC2)ccc(-c2cccc3sc(O)nc23)c1-c1nn[nH]n1 [Example 309, 6-(azetidin-3-ylsulfonyl)-3-(2-hydroxybenzo[d]thiazol-4-yl)-2-(2H-tetrazol-5-yl)benzenesulfonamide]	3.125 µM	2.00	1.563 µM	0.145 nM	0.7813 µM	3.125 µM	3.125 µM	0.256 nM	0.0885 nM
Nc1ncccc1-c1cc(-c2ccc(S(=O)(=O)C3CNC3)c(S(N)(=O)=O)c2-c2nnn[nH]2)ccn1 [Example 310, 3-(2′-Amino-[2,3′-bipyridin]-4-yl)-6-(azetidin-3-ylsulfonyl)-2-(1H-tetrazol-5-yl)benzenesulfonamide]	25 µM	15.99	1.563 µM	0.319 nM	1.563 µM	1.563 µM	3.125 µM	2.3 nM	1.04 nM
Nc1cc(-c2cc(-c3ccc(S(=O)(=O)C4CNC4)c(S(N)(=O)=O)c3-c3nnn[nH]3)ccn2)ccn1 [Example 311, 3-(2′-amino-[2,4′-bipyridin]-4-yl)-6-(azetidin-3-ylsulfonyl)-2-(1H-tetrazol-5-yl)benzenesulfonamide]	50 µM	31.99	1.563 µM	0.315 nM	3.125 µM	1.563 µM	3.125 µM	2.32 nM	0.921 nM
NC[C@@H](O)CS(=O)(=O)c1ccc(-c2cccc3[nH]c(N)nc23)c(-c2nn[nH]n2)c1S(N)(=O)=O [Example 312, 3-(2-amino-1H-benzo[d]imidazol-4-yl)-6-((R)-3-amino-2-hydroxypropylsulfonyl)-2-(2H-tetrazol-5-yl)benzenesulfonamide]	0.2786 µM	0.50	0.5573 µM	0.389 nM	0.3477 µM	0.5573 µM	0.8542 µM	0.43 nM	0.12 nM
NCCS(=O)(=O)c1ccc(-c2cccc3sc(N)nc23)c(-c2nn[nH]n2)c1S(N)(=O)=O [Example 313, 3-(2-aminobenzo[d]thiazol-4-yl)-6-((2-aminoethyl)sulfonyl)-2-(2H-tetrazol-5-yl)benzenesulfonamide]	0.6138 µM	0.69	0.8929 µM	0.232 nM	1.618 µM	1.228 µM	2.009 µM	0.257 nM	0.155 nM
Nc1nc2c(-c3ccc(S(=O)(=O)CCO)c(S(N)(=O)=O)c3-c3nn[nH]n3)cccc2s1 [Example 314, 3-(2-aminobenzo[d]thiazol-4-yl)-6-((2-hydroxyethyl)sulfonyl)-2-(2H-tetrazol-5-yl)benzenesulfonamide]	12.5 µM	2.00	6.25 µM	0.727 nM	12.5 µM	6.25 µM	12.5 µM	0.445 nM	0.379 nM
